Assay results from patent publication US20220380368A1, “SPIROCYCLIC ANDROGEN RECEPTOR PROTEIN DEGRADERS” (THE REGENTS OF THE UNIVERSITY OF MICHIGAN, priority 2019, published 2022).
Where two headings read alike, the source gives them in different places.

Key:
AR protein = target: T1, AR protein (Homo sapiens, UniProt P10275); assay: Western blotting analysis of AR protein levels in VCaP cells, band quantification, DC50/DC90; format: cell-based; conditions: VCaP cells, Table 6; read-out: VCaP DC50
T1 construct: endogenous in cells; host or cells: VCaP
T1 sequence (P10275 1-920): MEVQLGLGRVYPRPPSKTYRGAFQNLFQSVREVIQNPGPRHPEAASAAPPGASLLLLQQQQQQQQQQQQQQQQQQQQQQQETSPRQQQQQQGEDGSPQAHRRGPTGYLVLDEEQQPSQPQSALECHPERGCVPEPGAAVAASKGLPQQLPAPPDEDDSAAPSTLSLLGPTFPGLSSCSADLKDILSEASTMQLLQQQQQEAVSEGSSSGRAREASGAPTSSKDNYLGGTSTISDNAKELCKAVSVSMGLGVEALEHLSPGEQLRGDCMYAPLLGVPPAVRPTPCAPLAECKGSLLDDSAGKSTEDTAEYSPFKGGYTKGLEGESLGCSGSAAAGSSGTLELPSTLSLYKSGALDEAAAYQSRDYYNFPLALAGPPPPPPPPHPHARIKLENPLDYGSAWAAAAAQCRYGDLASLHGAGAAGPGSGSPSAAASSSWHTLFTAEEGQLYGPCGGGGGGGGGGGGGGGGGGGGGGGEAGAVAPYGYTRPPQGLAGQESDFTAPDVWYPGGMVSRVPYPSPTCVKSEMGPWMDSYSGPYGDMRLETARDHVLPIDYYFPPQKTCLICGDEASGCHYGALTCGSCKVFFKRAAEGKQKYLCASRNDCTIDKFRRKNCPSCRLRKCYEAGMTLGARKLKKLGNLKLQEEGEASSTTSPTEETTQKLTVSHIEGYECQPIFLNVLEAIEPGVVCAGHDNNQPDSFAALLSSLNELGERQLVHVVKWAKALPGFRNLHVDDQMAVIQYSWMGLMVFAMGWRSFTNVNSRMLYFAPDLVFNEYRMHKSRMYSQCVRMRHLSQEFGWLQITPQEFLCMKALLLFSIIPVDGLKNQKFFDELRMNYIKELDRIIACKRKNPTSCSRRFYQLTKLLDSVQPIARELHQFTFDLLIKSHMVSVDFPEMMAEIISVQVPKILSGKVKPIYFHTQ
Procedure, shortened: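 VCaP cells treated with compounds, lysed in RIPA and probed for AR by Western blot with GAPDH loading control. Band intensities normalised to GAPDH; DC50 from curve fit, DC90 calculated from DC50 and Hill slope via four-parameter equation.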

[1] = Mouse PK studies after oral and IV dosing; format: in vivo; conditions: for F: PO 3 mg/kg vs IV 1 mg/kg; for AUC(0-t) / clearance / half-life / Vd / Cmax / Tmax: in vivo; for clearance: read-out: IV Cl (converted); for Vd: read-out: IV VSS
Description: The pharmacokinetics of representative Compounds of the Disclosure were determined after oral and IV dosing at the concentrations indicated in mouse (Table 7). […] The vehicles used in these studies are either (i) 10% PEG400+90% PBS (adjusted to pH to 8.0 by 0.5 N NaOH); or (ii) 100% PEG200.

[2] = iv, 1 mg/kg, IV, dose 1 mg/kg, read-out: IV AUC(0 − t)
[3] = iv, 1 mg/kg, IV, dose 1 mg/kg, read-out: IV T1/2 (converted)
[4] = po, 3 mg/kg, PO, dose 3 mg/kg, read-out: PO AUC(0 − t)
[5] = po, 3 mg/kg, PO, dose 3 mg/kg, read-out: PO T1/2 (converted)

Structure (SMILES) | DC50 (AR protein) | F [1] | AUC(0-t) [1, 2] | clearance ([1]; iv, 1 mg/kg, IV, dose 1 mg/kg) | half-life [1, 3] | Vd ([1]; iv, 1 mg/kg, IV, dose 1 mg/kg) | Cmax ([1]; po, 3 mg/kg) | Tmax ([1]; po, 3 mg/kg) | AUC(0-t) [1, 4] | half-life [1, 5]
C[C@H]1CC2(CCN(c3ccc(C(=O)N4CCN(CC5CN(c6ccc7c(c6)C(=O)N(C6CCC(=O)NC6=O)C7=O)C5)CC4)nn3)CC2)CN1c1ccc(C#N)c(Cl)c1 (stereo partly drawn) [Cpd. No. 484, 2-chloro-4-((3S)-8-(6-(4-((1-(2-(2,6-dioxopiperidin-3-yl)-1,3-dioxoisoindolin-5-yl)azetidin-3-yl)methyl)piperazine-1-carbonyl)pyridazin-3-yl)-3-methyl-2,8-diazaspiro[4.5]decan-2-yl)benzonitrile] | 1 to 10 nM | 46% | 7770 ng·h/mL | 2 mL/min/kg | 6.1 h | 0.62 L/kg | 2380 ng/mL | 1.3 h | 10600 ng·h/mL | 4.5 h
C[C@H]1CC2(CCN(c3ccc(C(=O)N4CCN(CC5CN(c6cc7c(cc6F)C(=O)N(C6CCC(=O)NC6=O)C7=O)C5)CC4)nn3)CC2)CN1c1ccc(C#N)c(Cl)c1 (stereo partly drawn) [Cpd. No. 485, 2-chloro-4-((3S)-8-(6-(4-((1-(2-(2,6-dioxopiperidin-3-yl)-6-fluoro-1,3-dioxoisoindolin-5-yl)azetidin-3-yl)methyl)piperazine-1-carbonyl)pyridazin-3-yl)-3-methyl-2,8-diazaspiro[4.5]decan-2-yl)benzonitrile] | 1 to 10 nM | 73% | 2350 ng·h/mL | 6.5 mL/min/kg | 9.8 h | 2.95 L/kg | 1100 ng/mL | 1 h | 5150 ng·h/mL | 7.2 h
C[C@H]1CC2(CCN(c3cnc(C(=O)N4CCN(CC5CN(c6cc7c(cc6F)C(=O)N(C6CCC(=O)NC6=O)C7=O)C5)CC4)cn3)CC2)CN1c1ccc(C#N)c(Cl)c1 (stereo partly drawn) [Cpd. No. 488, 2-chloro-4-((3S)-8-(5-(4-((1-(2-(2,6-dioxopiperidin-3-yl)-6-fluoro-1,3-dioxoisoindolin-5-yl)azetidin-3-yl)methyl)piperazine-1-carbonyl)pyrazin-2-yl)-3-methyl-2,8-diazaspiro[4.5]decan-2-yl)benzonitrile] | 1 to 10 nM | 31% | 233 ng·h/mL | 70.2 mL/min/kg | 5 h | 7.75 L/kg | 99.6 ng/mL | 1 h | 213 ng·h/mL | 3.1 h
C[C@H]1CC2(CCN(c3ccc(C(=O)N4CCC(CN5CCN(c6ccc7c(c6)C(=O)N(C6CCC(=O)NC6=O)C7=O)CC5)CC4)nn3)CC2)CN1c1ccc(C#N)c(Cl)c1 (stereo partly drawn) [Cpd. No. 489, 2-chloro-4-((3S)-8-(6-(4-((4-(2-(2,6-dioxopiperidin-3-yl)-1,3-dioxoisoindolin-5-yl)piperazin-1-yl)methyl)piperidine-1-carbonyl)pyridazin-3-yl)-3-methyl-2,8-diazaspiro[4.5]decan-2-yl)benzonitrile] | 1 to 10 nM | 37% | 2140 ng·h/mL | 7.33 mL/min/kg | 7.45 h | 2.72 L/kg | 477 ng/mL | 1 h | 2390 ng·h/mL | 7.5 h
C[C@H]1CC2(CCN(c3ccc(C(=O)N4CCC(CN5CCN(c6cc7c(cc6F)C(=O)N(C6CCC(=O)NC6=O)C7=O)CC5)CC4)nn3)CC2)CN1c1ccc(C#N)c(Cl)c1 (stereo partly drawn) [Cpd. No. 490, 2-chloro-4-((3S)-8-(6-(4-((4-(2-(2,6-dioxopiperidin-3-yl)-6-fluoro-1,3-dioxoisoindolin-5-yl)piperazin-1-yl)methyl)piperidine-1-carbonyl)pyridazin-3-yl)-3-methyl-2,8-diazaspiro[4.5]decan-2-yl)benzonitrile] | 1 to 10 nM | 25% | 4920 ng·h/mL | 3 mL/min/kg | 8.7 h | 1.74 L/kg | 639 ng/mL | 1 h | 3730 ng·h/mL | 7.1 h
C[C@H]1CC2(CCN(c3ccc(C(=O)N4CCN(CC5CCN(c6ccc7c(c6)C(=O)N(C6CCC(=O)NC6=O)C7=O)CC5)CC4)nn3)CC2)CN1c1ccc(C#N)c(Cl)c1 (stereo partly drawn) [Cpd. No. 491, 2-chloro-4-((3S)-8-(6-(4-((1-(2-(2,6-dioxopiperidin-3-yl)-1,3-dioxoisoindolin-5-yl)piperidin-4-yl)methyl)piperazine-1-carbonyl)pyridazin-3-yl)-3-methyl-2,8-diazaspiro[4.5]decan-2-yl)benzonitrile] | 1 to 10 nM | 34% | 2640 ng·h/mL | 6 mL/min/kg | 7.7 h | 2.09 L/kg | 789 ng/mL | 1 h | 2710 ng·h/mL | 5.7 h
C[C@H]1CC2(CCN(c3cnc(C(=O)N4CCC(CN5CCN(c6ccc7c(c6)C(=O)N(C6CCC(=O)NC6=O)C7=O)CC5)CC4)cn3)CC2)CN1c1ccc(C#N)c(Cl)c1 (stereo partly drawn) [Cpd. No. 492, 2-chloro-4-((3S)-8-(5-(4-((4-(2-(2,6-dioxopiperidin-3-yl)-1,3-dioxoisoindolin-5-yl)piperazin-1-yl)methyl)piperidine-1-carbonyl)pyrazin-2-yl)-3-methyl-2,8-diazaspiro[4.5]decan-2-yl)benzonitrile] | 1 to 10 nM | 15% | 277 ng·h/mL | 54.5 mL/min/kg | 3.3 h | 7.71 L/kg | 59 ng/mL | 0.5 h | 123 ng·h/mL | 2.1 h
C[C@H]1CC2(CCN(c3cnc(C(=O)N4CCC(CN5CCN(c6cc7c(cc6F)C(=O)N(C6CCC(=O)NC6=O)C7=O)CC5)CC4)cn3)CC2)CN1c1ccc(C#N)c(Cl)c1 (stereo partly drawn) [Cpd. No. 493, 2-chloro-4-((3S)-8-(5-(4-((4-(2-(2,6-dioxopiperidin-3-yl)-6-fluoro-1,3-dioxoisoindolin-5-yl)piperazin-1-yl)methyl)piperidine-1-carbonyl)pyrazin-2-yl)-3-methyl-2,8-diazaspiro[4.5]decan-2-yl)benzonitrile] | 1 to 10 nM | 25% | 840 ng·h/mL | 20.3 mL/min/kg | 4.9 h | 4.12 L/kg | 224 ng/mL | 0.7 h | 627 ng·h/mL | 4.8 h
C[C@H]1CC2(CCN(c3cnc(C(=O)N4CCN(CC5CCN(c6ccc7c(c6)C(=O)N(C6CCC(=O)NC6=O)C7=O)CC5)CC4)cn3)CC2)CN1c1ccc(C#N)c(Cl)c1 (stereo partly drawn) [Cpd. No. 494, 2-chloro-4-((3S)-8-(5-(4-((1-(2-(2,6-dioxopiperidin-3-yl)-1,3-dioxoisoindolin-5-yl)piperidin-4-yl)methyl)piperazine-1-carbonyl)pyrazin-2-yl)-3-methyl-2,8-diazaspiro[4.5]decan-2-yl)benzonitrile] | 1 to 10 nM | 9% | 180 ng·h/mL | 87.3 mL/min/kg | 5.4 h | 16.9 L/kg | 36 ng/mL | 0.5 h | 49 ng·h/mL | 2.4 h
C[C@H]1CC2(CCN(c3ccc(C(=O)N4CCC(CN5Cc6cc7c(cc6C5)C(=O)N(C5CCC(=O)NC5=O)C7=O)CC4)nn3)CC2)CN1c1ccc(C#N)c(Cl)c1 (stereo partly drawn) [Cpd. No. 496, 2-chloro-4-((3S)-8-(6-(4-((6-(2,6-dioxopiperidin-3-yl)-5,7-dioxo-3,5,6,7-tetrahydropyrrolo[3,4-f]isoindol-2(1H)-yl)methyl)piperidine-1-carbonyl)pyridazin-3-yl)-3-methyl-2,8-diazaspiro[4.5]decan-2-yl)benzonitrile] | < 1 nM | 72% | 3030 ng·h/mL | 5.33 mL/min/kg | 5.8 h | 1.46 L/kg | 1420 ng/mL | 1 h | 6550 ng·h/mL | 4.1 h
